pEC50: −log10 of the molar value.
Key:
[1] = Stability in human serum at 37° C. monitored by 31P NMR; format: in vitro ADME; details: 12 h
Procedure: FIG. 5: Stability of HMBP phosphonate ProPAgen 4d in human serum at 37° C. for 12 hours as monitored by ^31P NMR. Prodrug 4d (5.0 mg) was dissolved in DMSO-d6 (0.10 mL) and D2O (0.15 mL). All ^31P NMR spectra were recorded at 37° C. Initially, a ^31P NMR scan of prodrug 4d (5.0 mg) in DMSO-d6 (0.10 mL) and D2O (0.15 mL) was recorded (shown as compound 4d alone in the figure). Following this, a previously defrosted human serum (0.30 mL) was added to the NMR tube and a spectrum immediately run. Spectra were recorded at 30 min after the addition and then at even time intervals over 12 hr.
FIG. 6: Stability of HMBP phosphonate ProPAgen 9a in human serum at 37° C. for 12 hours as monitored by ^31P NMR. Same as for compound 4d above. […] In fact, these are eight peaks as predicted and two extra peaks are seen when zoomed into these peaks to make the predicted eight phosphorous peaks of such compounds.
ProPAgen 4d with human serum at 37° C. for 12 h and monitored the sample by ^31P-NMR as reported previously^11.

human CD8+ T cells = assay: Activation of human CD8+ T cells in PBMC (CD69 and CD25 upregulation, flow cytometry); format: cell-based; details: for Concentration without CD8+ T cell activation relative to Vγ9/Vδ2 T-cell activation EC50: 1 μM versus calculated EC50; for Activation of CD8+ T cells: human PBMC, 20 h, up to 1 μM, CD69/CD25
Procedure: (§1) FIG. 11. FACS data showing a lack of activation of human CD8+ T cells by the HMBP phosphonate ProPAgen 4d. Human PBMCs were incubated with the indicated concentrations of ProPAgen 4d for 20 h. TCR CD8^+ T cells were then assessed for the upregulation of cell surface markers, CD69 and CD25, as a readout of the activation of CD8^+ T cells. Data was collected and analysed individually from two separate donors: Donor (1) results shown in FIG. 11A, Donor (2) results shown in FIG. 11B.
as §1, with “12.” for “11.”, “9d.” for “4d.”, “9d” for “4d”, “12A,” for “11A,”, “12B.” for “11B.”
Like peripheral blood γδ T-cells, peripheral blood CD8+ T-cells lack appreciable levels of surface CD69 or CD25 under steady state conditions, but upon T-cell receptor (TCR) stimulation upregulate both T-cell activation markers within 72 hours. PAg responsive CD8 T-cells were then distinguished by TCR CD8 expression and assessed for the upregulation CD69 and CD25.
Blood was obtained in the presence of a mixture of Heparin and Ethylenediaminetetraacetic acid (EDTA) as anticoagulants (2 U/ml heparin, 1.5 mM EDTA) from consented healthy donors (approved by the NRES Committee West Midlands ethical board; REC reference 14/WM/1254). Blood was then layered on a density gradient medium, lymphoprep (Stem Cell Technologies) and Peripheral blood mononuclear cells (PBMCs) were purified by gradient centrifugation. The cells were washed 2 times with Phosphate Buffered Saline (PBS), then resuspended in RPMI-1640 media supplemented with 2 mM L-glutamine, 25 mM HEPES, 1% sodium pyruvate, 50 μg/ml penicillin/streptomycin (Invitrogen) and 10% foetal calf serum.
(§2) Untreated and treated PBMCs were labelled with Zombie aqua viability dye (Biolegend) and subsequently were stained with a mixture of BV421-conjugated anti-CD3 (UCHT1, Biolegend), BV650-conjugated anti-CD8 (SK1; BD Bioscience), FITC-conjugated anti-CD25 (M-A25, Biolegend), PE-conjugated anti-CD69 (TP1.55.3; Beckman Coulter) and PE Cy5-conjugated anti-Vγ9 TCR (IMMU360, Beckman Coulter) and APC-conjugated anti-Vδ2 TCR (123R3, Miltenyi Biotech) antibodies. The percentages of CD69^+CD25^+ within CD8^+ T cell subset or Vγ9Vδ2 T-cell population were measured using flow cytometer. Data were analysed using FlowJo V10 software.

[2] = tested on: T24 urinary bladder carcinoma cell lines; assay: Cytotoxicity assay: specific lysis of T24 bladder cancer cells by Vγ9/Vδ2 T-cells; format: cell-based, human; details: T24 cells incubated 4 hours with 100 pM ProPAgen 4d; effector target ratio 10:1, 18 hours; compared with 10 μM zoledronate and HMBPP
Procedure: FIG. 13. Cytotoxocity Assay showing potent lysis of bladder cancer cells following incubation with the HMBP phosphonate ProPAgen 4d. ProPAgen 4d mediates the specific lysis of T24 bladder cancer cells by Vγ9/Vδ2 T-cells.
Vγ9Vδ2 T cells were expanded from PBMCs in the presence of 5 μM zoledronate for 14 days and 100 U/ml IL-2 (Peprotech) was added into the media every 2-3 days, yielding ~85% Vγ9Vδ2 T cells. […] All cells were then labelled with eFluor780 viability dye and CFSE^+ eFluor780 viability dye^+ cells were measured using flow cytometry. Data were analysed using FlowJo V10.

human Vγ9/Vδ2+ T cells = assay: Activation of human Vγ9/Vδ2+ T cells in PBMC (CD69 and CD25 upregulation, flow cytometry); format: cell-based; details: for Vγ9/Vδ2 T-cell activation potency (in words): human PBMC from healthy donors, 18-20 h, CD69/CD25, compared with HMBP phosphate ProPAgens or HMBPP; for pEC50: human PBMC, 18 hr incubation, CD69 and CD25 upregulation
Procedure: FIG. 7. Activation of human Vγ9/Vδ2^+ T cells by HMBP phosphonate ProPAgens 4d and 9d. Human peripheral blood mononuclear cells (PBMC) were incubated with the indicated concentrations of ProPAgens 4d (left) and 9d (right) for 18 hr. TCR Vγ9/Vδ2^+ T cells were then assessed for the upregulation of cell surface markers, CD69 and CD25, as a readout to the activation of Vγ9/Vδ2^+ T cells. EC50 for both ProPAgens is ca. 8 pM (picomolar).
FIG. 8. FACS data showing the activation of human Vγ9/Vδ2^+ T cells by the HMBP phosphonate ProPAgen 4d in a dose-dependent manner. Human peripheral blood mononuclear cells (PBMC) were incubated with the indicated concentrations of ProPAgens 4d for 18 h (FIG. 8A) or 20 h (FIGS. 8B and 8C). For 20 h incubations, data was collected and analysed individually from two separate donors: Donor (1) results shown in FIG. 8B, Donor (2) results shown in FIG. 8C. TCR Vγ9/Vδ2^+ T cells were then assessed for the upregulation of cell surface markers, CD69 and CD25, as a readout to the activation of Vγ9/Vδ2^+ T cells.
FIG. 9. FACS data showing the activation of human Vγ9/Vδ2^+ T cells by the HMBP phosphonate ProPAgen 9d in a dose-dependent manner. Human peripheral blood mononuclear cells (PBMC) were incubated with the indicated concentrations of ProPAgens 9d for 18 h (FIG. 9A) or 20 h (FIGS. 9B and 9C). For 20 h incubations, data was collected and analysed individually from two separate donors: Donor (1) results shown in FIG. 9B, Donor (2) results shown in FIG. 9C. TCR Vγ9/Vδ2^+ T cells were then assessed for the upregulation of cell surface markers, CD69 and CD25, as a readout to the activation of Vγ9/Vδ2^+ T cells.
FIG. 10. […] Data was collected and analysed individually from two separate donors: Donor (1) results shown in FIG. 10A, Donor (2) results shown in FIG. 10B. TCR Vγ9/Vδ2^+ T cells were then assessed for the upregulation of cell surface markers, CD69 and CD25, as a readout to the activation of Vγ9/Vδ2^+ T cells.
Peripheral blood γδ T-cells lack appreciable levels of surface CD69 or CD25 under steady state conditions, but upon T-cell receptor (TCR) stimulation upregulate both T-cell activation markers within 72 hours. PAg responsive Vγ9/Vδ2 T-cells were then distinguished by TCR Vγ9 and Vδ2 expression and assessed for the upregulation CD69 and CD25. […]
as §2, with “The percentages of CD69^+CD25^+ within CD8^+ T cell subset or Vγ9Vδ2 T-cell population were measured using flow cytometer.” left out

| SMILES | Stability in human serum [1] | Concentration without CD8+ T cell activation relative to Vγ9/Vδ2 T-cell activation EC50 (human CD8+ T cells) | Activation of CD8+ T cells (human CD8+ T cells) | T24 bladder cancer lysis by Vγ9/Vδ2 T-cells [2] | Vγ9/Vδ2 T-cell activation potency (in words) (human Vγ9/Vδ2+ T cells) | pEC50 (human Vγ9/Vδ2+ T cells) |
| --- | --- | --- | --- | --- | --- | --- |
| C/C(=C\CCP(=O)(N[C@@H](C)C(=O)OCc1ccccc1)Oc1ccccc1)CO (stereo partly shown) [ProPAgen 4d] | no degradation observed | approx. 100,000 times | did not exhibit activation | significant enhancement | potent Vγ9/Vδ2 T-cells activation | ~11.10 |
| C/C(=C\CC(F)(F)P(=O)(N[C@@H](C)C(=O)OCc1ccccc1)Oc1ccccc1)CO (stereo partly shown) [ProPAgen 9d] |  | approx. 100,000 times | did not exhibit activation |  | potent Vγ9/Vδ2 T-cells activation | ~11.10 |

Reference: patent publication US12723055B2, “Phosphoantigen prodrug compounds” (priority 2018, dated 2026)
